Measurements as given in patent publication US9845330B2, “6-nitro-2,3-dihydroimidazo[2,1-b]oxazoles and a process for the preparation thereof” (priority 2013, dated 2017).
≈ marks a conversion by molar mass, not a printed value. Like-named read-outs stand apart in the source and are kept apart here.

Columns and labels:
Type in all cases: cell-based
[1] = test system: M. tuberculosis H37Rv (ATCC 27294); test: MIC by broth dilution method, M. tuberculosis H37Rv; details: Mycobacterium tuberculosis
[2] = test system: macrophage J774 cells line; test: Cytotoxicity assay (MTT) in macrophage J774 cells; details: J774 cells, 24 hrs, MTT
How it was run: (§1)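 J774 cells seeded at 3×10^4 cells/cm^2 in RPMI with FCS reduced to 5%, then exposed to compounds at 40 μg/ml for 24 hrs. MTT reduction read at 450 nm; percentage cytotoxicity calculated relative to untreated cells.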

[3] = Cytotoxicity assay (MTT) in macrophage J774 cells; details: mouse, J774 macrophage cells; also called safety index
How it was run: as §1

[4] = 504 h, broth dilution, 3 weeks, read-out: MIC M. tb H37Rv
[5] = read-out: MIC value, text summary: sensitive H37Rv as well as MDR and XDR strains of M. tuberculosis

Compound | MIC [1, 4] | Cytotoxicity [2] | selectivity ratio at 24 h, 40 μg/ml [3] | MIC [1, 5]
CCc1ccc(-c2cc(-c3ccc(OC[C@@]4(C)Cn5cc([N+](=O)[O-])nc5O4)cc3)no2)cc1 [IC2, (R)-2-{4-[5-(4-ethylphenyl)isoxazol-3-yl]phenoxymethyl}-2,3-dihydro-2-methyl-6-nitroimidazo[2,1-b]oxazole] | 2 µg/mL (≈ 4.48 µM) | >40 µg/mL | > 10 | 
C[C@]1(COc2ccc(-c3cc(-c4ccc(F)cc4F)on3)cc2)Cn2cc([N+](=O)[O-])nc2O1 [IC3, (R)-2-{4-[5-(2,4-difluorophenyl)isoxazol-3-yl]phenoxymethyl}-2,3-dihydro-2-methyl-6-nitroimidazo[2,1-b]oxazole] | 0.25 µg/mL (≈ 0.55 µM) | >40 µg/mL | > 10 | < 1 µg/mL
C[C@]1(COc2ccc(-c3cc(-c4ccccc4F)on3)cc2)Cn2cc([N+](=O)[O-])nc2O1 [IC4, (R)-2-{4-[5-(2-fluorophenyl)isoxazol-3-yl]phenoxymethyl}-2,3-dihydro-2-methyl-6-nitroimidazo[2,1-b]oxazole] | 2 µg/mL (≈ 4.58 µM) | >40 µg/mL | > 10 | 
C[C@]1(COc2ccc(-c3cc(-c4ccc(C(F)(F)F)cc4)on3)cc2)Cn2cc([N+](=O)[O-])nc2O1 [IC5, (R)-2-{4-[5-(4-trifluoromethylphenyl)isoxazol-3-yl]phenoxymethyl}-2,3-dihydro-2-methyl-6-nitroimidazo[2,1-b]oxazole] | 1 µg/mL (≈ 2.06 µM) | >40 µg/mL | > 10 | 
Cc1ccc(-c2cc(-c3ccc(OC[C@@]4(C)Cn5cc([N+](=O)[O-])nc5O4)cc3)no2)cc1 [IC6, (R)-2-{4-[5-(4-methylphenyl)isoxazol-3-yl]phenoxymethyl}-2,3-dihydro-2-methyl-6-nitroimidazo[2,1-b]oxazole] | 1 µg/mL (≈ 2.31 µM) | >40 µg/mL | > 10 | 
COc1ccc(-c2cc(-c3ccc(OC[C@@]4(C)Cn5cc([N+](=O)[O-])nc5O4)cc3)no2)cc1 [IC7, (R)-2-{4-[5-(4-methoxyphenyl)isoxazol-3-yl]phenoxymethyl}-2,3-dihydro-2-methyl-6-nitroimidazo[2,1-b]oxazole] | 0.5 µg/mL (≈ 1.11 µM) | >40 µg/mL | > 10 | < 1 µg/mL
C[C@]1(COc2ccc(-c3cc(-c4ccc(OC(F)(F)F)cc4)on3)cc2)Cn2cc([N+](=O)[O-])nc2O1 [IC10, (R)-2-{4-[5-(4-trifluoromethoxyphenyl)isoxazol-3-yl]phenoxymethyl}-2,3-dihydro-2-methyl-6-nitroimidazo[2,1-b]oxazole] | 0.5 µg/mL (≈ 0.995 µM) | >40 µg/mL | > 10 | < 1 µg/mL
CCCCCc1cc(-c2ccc(OC[C@@]3(C)Cn4cc([N+](=O)[O-])nc4O3)cc2)no1 [IC11, (R)-2-{4-[5-pentylisoxazol-3-yl]phenoxymethyl}-2,3-dihydro-2-methyl-6-nitroimidazo[2,1-b]oxazole] | 32 µg/mL (≈ 77.6 µM) | >40 µg/mL | > 10 | 
CCCCCCCc1cc(-c2ccc(OC[C@@]3(C)Cn4cc([N+](=O)[O-])nc4O3)cc2)no1 [IC12, (R)-2-{4-[5-heptylisoxazol-3-yl]phenoxymethyl}-2,3-dihydro-2-methyl-6-nitroimidazo[2,1-b]oxazole] | 2 µg/mL (≈ 4.54 µM) | >40 µg/mL | > 10 | 
C[C@]1(COc2ccc(-c3cc(COc4ccc(C(F)(F)F)cc4)on3)cc2)Cn2cc([N+](=O)[O-])nc2O1 [IC15, (R)-2-{4-[5-(4-trifluoromethylphenoxymethyl)isoxazol-3-yl]phenoxymethyl}-2,3-dihydro-2-methyl-6-nitroimidazo[2,1-b]oxazole] | 0.25 µg/mL (≈ 0.484 µM) | >40 µg/mL | > 10 | < 1 µg/mL
C[C@]1(COc2ccc(-c3cc(COc4ccccc4F)on3)cc2)Cn2cc([N+](=O)[O-])nc2O1 [IC16, (R)-2-{4-[5-(2-fluorophenoxymethyl)isoxazol-3-yl]phenoxymethyl}-2,3-dihydro-2-methyl-6-nitroimidazo[2,1-b]oxazole] | 0.5 µg/mL (≈ 1.07 µM) | >40 µg/mL | > 10 | < 1 µg/mL
Cc1ccc(OCc2cc(-c3ccc(OC[C@@]4(C)Cn5cc([N+](=O)[O-])nc5O4)cc3)no2)cc1 [IC17, (R)-2-{4-[5-(4-methylphenoxymethyl)isoxazol-3-yl]phenoxymethyl}-2,3-dihydro-2-methyl-6-nitroimidazo[2,1-b]oxazole] | 0.5 µg/mL (≈ 1.08 µM) | >40 µg/mL | > 10 | < 1 µg/mL
CC(C)c1ccc(OCc2cc(-c3ccc(OC[C@@]4(C)Cn5cc([N+](=O)[O-])nc5O4)cc3)no2)cc1 [IC18, (R)-2-{4-[5-(4-isopropylphenoxymethyl)isoxazol-3-yl]phenoxymethyl}-2,3-dihydro-2-methyl-6-nitroimidazo[2,1-b]oxazole] | 0.25 µg/mL (≈ 0.51 µM) | >40 µg/mL | > 10 | < 1 µg/mL
C[C@]1(COc2ccc(-c3cc(COc4ccc(F)cc4F)on3)cc2)Cn2cc([N+](=O)[O-])nc2O1 [IC22, (R)-2-{4-[5-(2,4-difluorophenoxymethyl)isoxazol-3-yl]phenoxymethyl}-2,3-dihydro-2-methyl-6-nitroimidazo[2,1-b]oxazole] | 0.12 µg/mL (≈ 0.248 µM) | >40 µg/mL | > 10 | < 1 µg/mL
C[C@]1(COc2ccc(NC(=O)Nc3ccc(F)cc3)cc2)Cn2cc([N+](=O)[O-])nc2O1 [IIA1, (R)-1-(4-fluorophenyl)-3-{4-(2-methyl-6-nitro-2,3-dihydroimidazo[2,1-b]oxazol-2-yl)methoxyphenyl}urea] | 2 µg/mL (≈ 4.68 µM) | >40 µg/mL | > 10 | 
CCc1ccc(NC(=O)Nc2ccc(OC[C@@]3(C)Cn4cc([N+](=O)[O-])nc4O3)cc2)cc1 [IIA2, (R)-1-(4-ethylphenyl)-3-{4-(2-methyl-6-nitro-2,3-dihydroimidazo[2,1-b]oxazol-2-yl)methoxyphenyl}urea] | 0.5 µg/mL (≈ 1.14 µM) | >40 µg/mL | > 10 | < 1 µg/mL
Cc1ccc(NC(=O)Nc2ccc(OC[C@@]3(C)Cn4cc([N+](=O)[O-])nc4O3)cc2)cc1 [IIA4, (R)-1-(4-methylphenyl)-3-{4-(2-methyl-6-nitro-2,3-dihydroimidazo[2,1-b]oxazol-2-yl)methoxyphenyl}urea] | 0.06 µg/mL (≈ 0.142 µM) | >40 µg/mL | > 10 | < 1 µg/mL
COc1ccc(NC(=O)Nc2ccc(OC[C@@]3(C)Cn4cc([N+](=O)[O-])nc4O3)cc2)cc1 [IIA5, (R)-1-(4-methoxyphenyl)-3-{4-(2-methyl-6-nitro-2,3-dihydroimidazo[2,1-b]oxazol-2-yl)methoxyphenyl}urea] | 1 µg/mL (≈ 2.28 µM) | >40 µg/mL | > 10 | 
C[C@]1(COc2ccc(NC(=O)Nc3ccc(OC(F)(F)F)cc3)cc2)Cn2cc([N+](=O)[O-])nc2O1 [IIA6, (R)-1-(4-trifluoromethoxyphenyl)-3-{4-(2-methyl-6-nitro-2,3-dihydroimidazo[2,1-b]oxazol-2-yl)methoxyphenyl}urea] | 0.5 µg/mL (≈ 1.01 µM) | >40 µg/mL | > 10 | < 1 µg/mL
C[C@]1(COc2ccc(S(=O)(=O)N3CCN(c4cccc(Cl)c4)CC3)cc2)Cn2cc([N+](=O)[O-])nc2O1 [IIC3, (R)-2-{4-[4-(3-chlorophenyl)piperazin-1-yl]sulfonylphenoxymethyl}-2,3-dihydro-2-methyl-6-nitroimidazo[2,1-b]oxazole] | 8 µg/mL (≈ 15 µM) | >40 µg/mL | > 10 | 
C[C@]1(COc2ccc(S(=O)(=O)N3CCN(c4ccc(OC(F)(F)F)cc4)CC3)cc2)Cn2cc([N+](=O)[O-])nc2O1 [IIC4, (R)-2-{4-[4-(4-trifluoromethoxyphenyl)piperazin-1-yl]sulfonylphenoxymethyl}-2,3-dihydro-2-methyl-6-nitroimidazo[2,1-b]oxazole] | 2 µg/mL (≈ 3.43 µM) | >40 µg/mL | > 10 | 
CCOC(=O)N1CCN(S(=O)(=O)c2ccc(OC[C@@]3(C)Cn4cc([N+](=O)[O-])nc4O3)cc2)CC1 [IIC5, (R)-ethyl-{4-[4-(2-methyl-6-nitro-2,3-dihydroimidazo[2,1-b]oxazol-2yl)methoxyphenyl]sulfonyl}piperazine-1-carboxylate] | 2 µg/mL (≈ 4.04 µM) | >40 µg/mL | > 10 | 
C[C@]1(COc2ccc(S(=O)(=O)N3CCN(C(=O)c4ccccc4)CC3)cc2)Cn2cc([N+](=O)[O-])nc2O1 [IIC6, (R)-{4-[4-(2-methyl-6-nitro-2,3-dihydroimidazo[2,1-b]oxazol-2yl)methoxyphenyl]sulfonyl}piperazine-1-yl(phenyl)methanone] | 2 µg/mL (≈ 3.79 µM) | >40 µg/mL | > 10 | 
C[C@]1(COc2ccc(S(=O)(=O)N3CCCCC3)cc2)Cn2cc([N+](=O)[O-])nc2O1 [IIC7, (R)-2-{4-(piperidin-1-ylsulfonyl)phenoxymethyl}-2,3-dihydro-2-methyl-6-nitroimidazo[2,1-b]oxazole] | 1 µg/mL (≈ 2.37 µM) | >40 µg/mL | > 10 | 
C[C@]1(COc2ccc(S(=O)(=O)N3CCC(c4ccccc4)CC3)cc2)Cn2cc([N+](=O)[O-])nc2O1 [IIC8, (R)-2-{4-[(4-phenylpiperidin-1-yl)sulfonyl]phenoxymethyl}-2,3-dihydro-2-methyl-6-nitroimidazo[2,1-b]oxazole] | 0.5 µg/mL (≈ 1 µM) | >40 µg/mL | > 10 | 0.5 µg/mL (≈ 1 µM)
